Source: patent publication US7445894B2, “Compositions and methods for detection and isolation of phosphorylated molecules” (priority 2002, dated 2008)

Key:
lysozyme = biological target: T1, lysozyme (Gallus gallus, UniProt P00698); experiment: Fluorescence polarization of Compound 2-Ga3+ with non-phosphorylated control protein; type: binding; settings: 1.0 μM Compound 2, 100 μM lysozyme plus 1 μM gallium chloride
T1 construct: purchased Sigma Chemical Company L-7651
Procedure: First, an assay was conducted with a (1) phosphoprotein (ovalbumin) and a (2) control non-phosphorylated protein (lysozyme). A modified binding solution containing 1.0 μM Compound 2 was incubated in 50 mM 2-(N-morpholino)ethanesulfonic acid (pH 3.0 to 3.5), 500 mM NaCl at room temperature in parallel to solutions containing, in addition, (a) 1 μM gallium chloride, (b) 100 μM lysozyme plus 1 μM gallium chloride, or (c) and 100 μM ovalbumin plus 1 μM gallium chloride. The fluorescence polarization of the resulting solutions was then measured in a fluorescence spectrophotometer with excitation at 530 nm and emission at 545 to 700 nm. The integrated polarized emission spectra yielded anisotropy “r values” of: r=0.10+/−0.003+/−0.02 (Compound 2 plus gallium); r=0.10+/−0.002 (Compound 2 plus lysozyme non-phosphorylated control); r=0.34+/−0.002 (Compound 2 plus gallium plus ovalbumin), indicating phosphorylation-dependent binding of the Compound 2 to this phosphoprotein (see FIG. 10A)

β-casein = biological target: T2, β-casein (Bos taurus, UniProt P02666); experiment: Phosphoprotein detection on HydroGel microarray; settings: pentaphosphorylated protein, binding solution with gallium chloride
T2 sequence (P02666 16-224): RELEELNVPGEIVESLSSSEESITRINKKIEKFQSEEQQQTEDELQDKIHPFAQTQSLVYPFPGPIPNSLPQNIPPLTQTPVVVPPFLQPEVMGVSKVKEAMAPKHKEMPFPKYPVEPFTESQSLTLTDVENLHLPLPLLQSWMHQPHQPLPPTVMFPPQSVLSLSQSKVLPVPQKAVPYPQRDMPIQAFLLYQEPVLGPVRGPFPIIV
Procedure: The protein was loaded in a two-fold dilution series from 166 pg-0.324 pg on the microarray.
Four specific, purified proteins including β-casein, ovalbumin, pepsin and bovine serum albumin were arrayed from a source plate (384 well plate) at a concentration of 0.975 μg/mL-0.5 mg/mL in water, onto HydroGel coated slides (Perkin Elmer), using the BioChip Arrayer™ (Packard Instrument Co., Meriden, Conn.). The BioChip Arrayer™ utilizes a PiezoTip™ Dispenser consisting of 4 glass capillaries. Proteins were dispensed from the PiezoTip™ by droplets 333 pL in volume to create array spots 175 microns in diameter with a 500 micron horizontal and vertical pitch (pitch=center to center spacing of spots). Proteins were arrayed in duplicate in four rows, with 10 dilution points, resulting in an array of 160 spots. The resulting concentration range of the array was 166.5 pg/spot-0.325 pg/spot. For detection of phosphoproteins, slides were incubated for 1 hour on a rotator in 1 μM of Compound 2, in buffer containing 0.5 M NaCl, 20% 1,2-propanediol, 1 μM GaCl3, and 0.05 M NaOAc, pH 4.0. Slides were then washed for 1 hour on a rotator in 0.05 M NaOAc, pH 4.0, containing 10% methanol followed by a 15 minute water wash. […] Phosphate content per protein was determined to be as follows: β-casein, five phosphates; ovalbumin, two phosphates; pepsin, one phosphate; and BSA, no phosphates.

pDSIP = biological target: T3, pDSIP (Oryctolagus cuniculus, UniProt P01158); experiment: Total phosphopeptide detection on microarray with binding solution; settings: 1 μM Compound 2, 1 μM GaCl3, pH 4.0
T3 construct: purchased SynPep Corporation
Procedure: (A) Three pairs of peptides, the phosphorylated and the non-phosporylated forms of Kemptide, pp60 c-src and DSIP, were arrayed on to HydroGel coated slides (Perkin Elmer) from a source plate (384-well) with a concentration of 0.95 μg/ml-0.5 mg/ml peptide in water, using the BioChip Arrayer™ (Perkin Elmer) as described in Example 20. For specific detection of the phosphopeptides on the array, the slides were incubated for 45 minutes on a rotisserie in a binding solution comprising 1 μM Compound 2, in buffer containing 0.5 M NaCl, 20% 1,2 propanediol, 1 μM GaCl3, and 0.05 M sodium acetate, pH 4.0. Slides were then washed three times for 15 minutes on a rotisserie in 0.05 M sodium acetate, pH 4.0, containing 4% acetonitrile followed by a 15 minute water wash. Slides were then spun briefly in a microarray high-speed centrifuge affixed with a rotor with a slide holder (Telechem) at ˜6000 rpm to remove excess liquid. After slides were dry, the arrays were imaged using the ScanArray® 5000 XL Microarray Analysis System (Packard Instrument Co., Meriden, Conn.) using the 543.5 nm laser and 570 nm emission filter. […] Using the 543.5 nm excitation and 570 nm emission filter, there was no signal detected. Using the 632.8 nm excitation and 670 nm emission filter, pp60 c-src (pY) was specifically detected to a sensitivity of 5.2 pg.

T1 sequence (P00698 19-147): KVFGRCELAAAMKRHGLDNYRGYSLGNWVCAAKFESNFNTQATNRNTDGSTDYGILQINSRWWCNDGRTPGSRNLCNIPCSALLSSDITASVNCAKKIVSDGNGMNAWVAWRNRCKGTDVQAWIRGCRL

Rhod-5F [Compound 2]
anisotropy r value (lysozyme): 0.10+/−0.002
amount detected on HydroGel microarray (β-casein): 0.65 pg
amount specifically labeled on microarray (pDSIP): 1.3 to 2.6 pg
